Test results from ChEMBL document CHEMBL1131763, “Thiazole-derived potent, highly bioavailable short duration growth hormone secretagogues” (Bioorg Med Chem Lett, 1999).
The source made the active and inactive calls. No cut-off for these calls is given here.

Key:
Assay type in all cases: functional, organism-based
Rattus norvegicus = species on record: Rattus norvegicus; test: Concentration required for determining half-maximal release of growth hormone(GH) in the rat pituitary cell assay; settings: Pituitary gland cell
Canis familiaris [1] = test: In vivo growth hormone(GH) release in beagles after intravenous administration; NA- Not active; settings: Canis lupus familiaris
Canis familiaris [2] = test: In vivo growth hormone(GH) release in beagles after orally administered dose of 0.25 mg/kg; 6/8; design: dose 0.25 mg/kg; settings: Canis lupus familiaris
Canis familiaris [3] = test: In vivo growth hormone(GH) release in beagles after intravenously administered dose of 0.01 mg/kg; 1/1; design: dose 0.01 mg/kg; settings: Canis lupus familiaris
Canis familiaris [4] = test: In vivo growth hormone(GH) release in beagles after orally administered dose of 0.5 mg/kg;8/8; design: dose 0.5 mg/kg; settings: Canis lupus familiaris

SMILES	EC50 (Rattus norvegicus) [nM]	other results
CCOC(=O)C1(Cc2nccs2)CCCN(C(=O)[C@@H](Cc2c[nH]c3ccccc23)NC(=O)C(C)(C)N)C1 (stereo partly drawn)	4.2	–
CCOC(=O)[C@]1(Cc2cscn2)CCCN(C(=O)[C@@H](Cc2c[nH]c3ccccc23)NC(=O)C(C)(C)N)C1	0.5	–
CCOC(=O)[C@]1(Cc2ccccn2)CCCN(C(=O)[C@@H](Cc2c[nH]c3ccccc23)NC(=O)C(C)(C)N)C1	0.2	–
CCOC(=O)C1(Cc2cncs2)CCCN(C(=O)[C@@H](Cc2c[nH]c3ccccc23)NC(=O)C(C)(C)N)C1 (stereo partly drawn)	6.1	Response (Canis familiaris [1]): inactive
CCOC(=O)C1(Cc2cccnc2)CCCN(C(=O)[C@@H](Cc2c[nH]c3ccccc23)NC(=O)C(C)(C)N)C1 (stereo partly drawn)	2.2	–
CCOC(=O)[C@@]1(Cc2ccccc2)CCCN(C(=O)[C@@H](Cc2c[nH]c3ccccc23)NC(=O)C(C)(C)N)C1	1.6	Response (Canis familiaris [2]): Partially active; Response (Canis familiaris [3]): inactive; Response (Canis familiaris [4]): Active
CC(C)(N)C(=O)N[C@H](Cc1c[nH]c2ccccc12)C(=O)N1CCC[C@](Cc2ccccc2)(C(=O)O)C1	190	–
CCOC(=O)C1(Cc2cscn2)CCCN(C(=O)[C@@H](Cc2c[nH]c3ccccc23)NC(=O)C(C)(C)N)C1 (stereo partly drawn)	1	–
CC(C)(N)C(=O)N[C@H](Cc1c[nH]c2ccccc12)C(=O)N1CCC[C@](Cc2cscn2)(C(=O)O)C1	> 500	–
CCOC(=O)C1(Cc2ccncc2)CCCN(C(=O)[C@@H](Cc2c[nH]c3ccccc23)NC(=O)C(C)(C)N)C1 (stereo partly drawn)	4.4	–
CCOC(=O)[C@@]1(Cc2cscn2)CCCN(C(=O)[C@@H](Cc2c[nH]c3ccccc23)NC(=O)C(C)(C)N)C1	15	–
CC(C)(N)C(=O)N[C@H](Cc1c[nH]c2ccccc12)C(=O)N1CCC[C@](Cc2ccccn2)(C(=O)O)C1	570	–
CCOC(=O)C1(Cc2ccccn2)CCCN(C(=O)[C@@H](Cc2c[nH]c3ccccc23)NC(=O)C(C)(C)N)C1 (stereo partly drawn)	0.5	–
CCOC(=O)[C@@]1(Cc2ccccn2)CCCN(C(=O)[C@@H](Cc2c[nH]c3ccccc23)NC(=O)C(C)(C)N)C1	3	–
